For data set [1], the system named is HepG2 cells. The experiment in a line: CCK-8 cell viability. It is filed as cell-based, human. The conditions noted are these: 24 h, 50. As to the method:
Human liver cancer cell line HepG2 were grown in DMEM containing 10% FBS and 1% penicillin/streptomycin at 37 °C in a humidified atmosphere of 5% CO2. HepG2 cells (1.2 × 10^5 cells/well) were seeded in a 4-well glass plate for 24 h. Then, SNCPs@st-p53pep (0.02 mg/mL) and st-p53pep alone (2 μM) were added to each well in a serum-free medium for 4 h. After incubation, the cells were carefully rinsed with PBS, and the medium was replaced with a serum-containing fresh medium. After the nucleus was stained with Hoechst 33342 staining kit by manufacturer’s protocol, bright field and fluorescence images were obtained by using a DeltaVision Elite Microscopy System (GE Healthcare, USA). To observe the distribution of SNCP8 and st-p53pep in cells, TAMRA-labeled SNCP8@FAM-labeled st-p53pep (0.25 mg/mL) was treated in the same manner instead of SNCP8@st-p53pep. And then, the Mander’s overlap coefficient (MOC) was calculated in the Image J program (ver. 1.52a) via the JACoP plugin to identify co-localization between fluorescence signals over time. […] The cell viability was determined using cell counting kit-8 (CCK-8) assay by monitoring absorbance at 450 and 670 nm wavelength measured using a microplate reader (Molecular Devices, Inc., USA). The EC50 values of SNCPs@st-p53pep were determined by the logistic curve-fitting method with Origin (OriginLab, USA).

In data set [2] the target is T1, MDM2_1-118 (hMDM2 protein) (Homo sapiens, UniProt Q00987).
T1 construct: purchased SignalChem (Canada)
The experiment in a line: Fluorescence polarization binding affinity. The settings on record: peptide 50 nM, PBS pH 7.4, 0.01% Tween20, 10 mM DTT, 2% DMSO, room temperature, N = 3, mean ± SD. As to the method: Each of p53pep and st-p53pep (50 nM) were incubated with MDM2_1-118 with various concentrations in binding assay buffer (PBS pH 7.4 with 0.01% Tween20, 10 mM DTT, 2% DMSO) at room temperature. Binding affinity was measured by fluorescence polarization on a Biotek Synergy Neo2 multi-mode microplate reader. Kd values were determined by nonlinear regression analysis.

A short description of data set [3]: CD spectroscopy, α-helicity by CONTIN-LL. It is filed as physicochemical. The settings on record: for helix %: CONTINLL from CD spectra, Avg of replicates Ⅰ-Ⅲ; for α-Helicity, helix % avg: CD spectra, CONTINLL, summary table, mean of n = 3. On the procedure: CD spectra were measured using a J-810 spectropolarimeter (JASCO, Japan). Spectra were recorded from 250 nm to 190 nm wavelength using a 1 cm path-length cuvette. Scans were repeated five times and averaged. Molar ellipticity was calculated per amino acid residue. The concentrations of SNCP and p53pep were 0.2 mg/mL and 20 μM, respectively. All sample suspensions were incubated at least for 2 days at room temperature before CD measurement. To perform temperature-dependent CD experiments, the spectra were recorded at 10 °C interval over a temperature range of 25 to 75 °C, with 30 min incubation time to reach equilibrium at each temperature. The α-helicity of peptides was calculated by using the CONTIN-LL algorithms provided from the DICHROWEB server.

Data set [4] deals with proteinase K. Put plainly: in vitro. The format is in vitro ADME. The conditions noted are these: isolated enzyme proteinase k. On the procedure: (§1) To investigate whether SNCP8@st-p53pep could effectively suppress tumor growth in vivo, we evaluated the anti-tumor effect of SNCP8@st-p53pep using human liver cancer (HepG2) xenograft bearing mouse model. Mice were treated with SNCP8@st-p53pep and controls by intratumoral injection every three days and tumor volume changes were monitored for 14 days. […] Next, we monitored distribution of TAMRA-SNCP8 (red), FAM-st-p53pep (green), and TAMRA-SNCP8@FAM-st-p53pep in the tumor-bearing mouse overtime after intratumoral injection. As shown in Fig. 5b and Supplementary Fig. 20, green fluorescence signal in the tumor treated with TAMRA-SNCP8@FAM-st-p53pep slowly diminished during 72 h, while signal in tumor treated with FAM-st-p53pep alone quickly disappeared within 24 h. […] To compare the lifetime of st-p53pep in tumor more precisely, we calculated the half-life (t1/2) of green fluorescence decay for each sample by analyzing region of interest (ROI) on the basis of whole-body fluorescence image (Fig. 5c).
(§2) Supplementary Figure 19. The proteolytic degradation of p53pep. Semi-quantitative analysis of protease-mediated degradation of p53pep by using the matrix-assisted laser desorption ionization time-of-flight mass spectrometry ( MALDI-TOF MS).
(§3) (a) Mass spectrum of p53pep without SNCP8 (left) and with SNCP8 (right) over 12 h.
(§4) The cumulative remaining p53pep in short (b) and long (c) periods in different conditions: p53pep (circle) and SNCP8@p53pep (square). Rapid degradation of free p53pep within 1 min is observed while the degradation of p53pep inside the SNCP8 […]
(§5) proteinase K (N = 3, biologically independent samples; mean ± SD).
(§6) (1 picture or pasted object on this page, not shown here)

For data set [5], the target named is proteinase K (Parengyodontium album, UniProt P06873). Put plainly: in vitro. It is filed as in vitro ADME. On the procedure:
as §1, §2, §3, §4, §5, §6

Data set [6] is described as follows: Water solubility (in words). It is filed as physicochemical.
Data set [7] addresses stapled p53 peptide prepared by click reaction (st-p53pep). Put plainly: fluorescence polarisation; 50 nM FAM-labelled peptide incubated with MDM2(1-118) at various concentrations; PBS pH 7.4 with 0.01% Tween20, 10 mM DTT, 2% DMSO; room temperature; Kd by nonlinear regression. (Polarisation of emitted light reports the rotation of a fluorescent probe.)
For data set [8], the target named is synthetic p53 peptide (p53pep). Described as above.
Data set [9] deals with MDM2(1-118), a part of the target protein possessing the p53pep binding site (UniProt Q00987).

Where only a bound is given, the exact number is not on record here.

MDM2(1-118), a part of the target protein possessing the p53pep binding site (from UniProt Q00987 1-118) (domain or fragment), sequence (Q00987 1-118): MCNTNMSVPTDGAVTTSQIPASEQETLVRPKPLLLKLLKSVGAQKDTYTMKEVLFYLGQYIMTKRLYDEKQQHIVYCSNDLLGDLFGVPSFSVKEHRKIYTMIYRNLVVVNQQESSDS
MDM2(1-118), a part of the target protein possessing the p53pep binding site (UniProt Q00987), sequence (Q00987 1-118): as above
T1 sequence (Q00987 1-118): as above
proteinase K (Parengyodontium album, UniProt P06873), sequence (P06873 106-384, species assumed): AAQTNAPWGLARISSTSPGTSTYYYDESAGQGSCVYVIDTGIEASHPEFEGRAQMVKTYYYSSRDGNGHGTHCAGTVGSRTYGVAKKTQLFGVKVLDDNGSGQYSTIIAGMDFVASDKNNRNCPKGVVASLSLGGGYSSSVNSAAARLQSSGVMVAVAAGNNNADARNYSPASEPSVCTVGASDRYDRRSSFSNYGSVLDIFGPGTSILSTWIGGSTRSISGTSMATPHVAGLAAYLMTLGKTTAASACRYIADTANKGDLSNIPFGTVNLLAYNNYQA

Usually Kd stands for the equilibrium constant for the complex coming apart. One may read the fraction remaining as the share of the starting amount still present when the sample was taken. On to `C#CCCC(=O)NCCCC[C@@H](NC(=O)[C@H](Cc1ccccc1)NC(=O)[C@@H](NC(=O)[C@H](CCC(N)=O)NC(=O)[C@H](CCC(N)=O)NC(=O)[C@H](CO)NC(=O)[C@H](CCC(N)=O)NC(=O)CNC(=O)CNC(=O)c1ccc2c(c1)C(=O)OC21c2ccc(O)cc2Oc2cc(O)ccc21)[C@@H](C)O)C(=O)N[C@@H](CC(N)=O)C(=O)N[C@@H](CC(C)C)C(=O)N[C@@H](Cc1c[nH]c2ccccc12)C(=O)N[C@@H](CCCNC(=N)N)C(=O)N[C@@H](CC(C)C)C(=O)N[C@@H](CC(C)C)C(=O)N[C@@H](CCCN=[N+]=[N-])C(=O)N[C@@H](CCC(N)=O)C(=O)N[C@@H](CC(N)=O)C(N)=O` [p53pep], for which the “cell viability at corresponding dose” value in data set [1] is recorded as “more than 80%”. In [2], the Kd came to 80.6 ± 2.33 nM. In addition, the helix % in data set [3] (25C) is on record as 39.4%; in [3] (35C), 35.9%; in data set [3] (45C), 37.5%; in data set [3] (55C), 36.5667%; in data set [3] (65C) it was 34.0667%; in data set [3] (75C), 35.9667%. Also, the “α-Helicity, helix % avg” value was 39.4% in data set [3] (25 ℃), 35.9% in data set [3] (35 ℃) and 37.5% in [3] (45 ℃). In addition, the amount remaining at 1 min in data set [4] came to 16.9%. The fraction remaining at 0.05 h in data set [4] amounted to 8.39%. The fraction remaining at 5 min in data set [4] was 5.56%. This molecule returned an amount remaining at 10 min in [4] of 3.21%. Further, the fraction remaining at 0.5 h in data set [4] turned out to be 6.68%. The same molecule gave a share remaining at 1 h in data set [4] of 9.04%. The molecule also showed an amount remaining at 12 h in data set [4] of 3.85%. Moreover, the “time of degradation by proteinase K” value in data set [5] is given as no more than 1 min. Besides, in data set [6], the “solubility in water (in words)” value is listed as “insoluble in water”.

As for “MDM2(1-118), a part of the target protein possessing the p53pep binding site (from UniProt Q00987 1-118) (domain or fragment)”, the Kd was found to be 27.7 nM in data set [7] and 80.6 nM in [8].

synthetic p53 peptide (p53pep) came in with a viability of HepG2 cells (CCK-8) at the corresponding dose of SNCP8@p53pep (unstapled peptide delivered in SNCP8) in [9] greater than 80%.

Values taken from publication PMC9356039, “Multifunctional synthetic nano-chaperone for peptide folding and intracellular delivery” (Nature Communications, 2022).
